In patent publication US6524805B1 (priority 1997, dated 2003):
Several values for one entry are separate records, joined by “and”; a condition that tells them apart may be missing. Equal values may be shown once. Read-outs that look alike come from different tables or passages of the source.

Assays:
[1] = system: estrogen surface receptor (ESR1); assay: NO release from ITA fragments and cultured arterial endothelial cells, estrogen compounds; format: cell-based, human
Text: Internal thoracic artery (ITA) segments were obtained from patients undergoing elective coronary artery bypass grafting (CABG) for atherosclerotic coronary artery disease. Patients with chronic illnesses, such as diabetes or cancer as well as acute processes (e.g., known infections, trauma), were excluded.
Prior to measuring NO release, the cells were exposed to a concentration gradient of the various ligands.

[2] = system: estrogen surface receptor (ESR1); assay: Intracellular calcium (fura-2) in human arterial endothelial cells, estrogen compounds; format: cell-based; conditions: for effect of prior exposure on 17β-estradiol-induced [Ca^2+]i increase: tamoxifen 1 nM, ICI 182, 780 1 μM
Protocol: Human arterial endothelial cells were purchased from Cell Systems (Eugene, Oregon) and grown at 37° C., 5% CO2 in chamber slides (Nunc Int.) with CS-C medium (Cell Systems) supplemented with 10% fetal calf serum and endothelial growth factor. Intracellular calcium levels were measured by dual emission microfluorimetry using the fluorescent dye fura-2/AM. Cells were loaded with the fluorescent ion indicator as follows. […] Cells were washed twice with PBS and then test drugs were added. […] Experiments were carried out at room temperature in PBS without calcium/magnesium. Receptor antagonists, when used, were administered 2 minutes prior to the respective agonist.
Intracellular calcium levels in human arterial endothelial cells were monitored as described herein for the mu3 studies.

mu3 opiate receptor [3] = molecular target: T1, mu3 opiate receptor (Homo sapiens, UniProt P35372); format: cell-based
T1 construct: aliquots of membrane suspensions from human granulocytes and lung non-small cell carcinoma; from tissue; host or cells: human granulocytes, human monocytes, normal lung, non-small cell lung carcinoma tissue, vascular tissue
T1 sequence (P35372 1-314 isoform P35372-14): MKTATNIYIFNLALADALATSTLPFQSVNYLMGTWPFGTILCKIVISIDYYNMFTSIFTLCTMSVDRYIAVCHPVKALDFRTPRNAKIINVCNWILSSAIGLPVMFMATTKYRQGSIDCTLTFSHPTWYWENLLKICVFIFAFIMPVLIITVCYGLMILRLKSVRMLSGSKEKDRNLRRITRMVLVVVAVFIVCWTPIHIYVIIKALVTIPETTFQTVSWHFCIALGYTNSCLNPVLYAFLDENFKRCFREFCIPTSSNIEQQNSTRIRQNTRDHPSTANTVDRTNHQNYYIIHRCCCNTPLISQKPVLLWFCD

mu3 opiate receptor [4] = molecular target: T1, mu3 opiate receptor; assay: biochemical; format: binding
Protocol: Binding was studied in human granulocytes, normal lung, and non-small cell lung carcinoma tissue. The separate materials were washed and homogenized in 50 volumes of 0.32 M sucrose (pH 7.4) at 4° C. […] Briefly, aliquots of membrane suspensions from human granulocytes and lung non-small cell carcinoma (less 9% lymphocyte infiltrate) were incubated with non-radioactive compounds at six concentrations for 10 minutes at 22° C. and then with 40 nM of ^3H-dihydromorphine ([^3H]-DHM) for 60 minutes at 4° C. One hundred percent binding is defined as bound [^3H]-DHM in the presence of 10 μM dextrophan minus bound [^3H]-DHM in the presence of 10 μM levorphanol. The IC50 values are defined as the concentration of drug that elicits half-maximal inhibition of specific binding. The mean SEM for three experiments is given.

mu3 opiate receptor [5] = molecular target: T1, mu3 opiate receptor; format: cell-based; remark: listed apart in the source
Protocol: The system was calibrated daily using different concentrations of the nitrosothiol donor S-nitroso-N-acetyl-DL-penicillamine (SNAP; Sigma, St. Louis, Mo.) to generate a standard curve. The concentration of NO gas in solution was measured in real-time with the DUO 18 computer data acquisition system (World Precision Instruments). Each experiment was simultaneously performed with a control (vehicle alone) to exclude experimental drift in NO release unrelated to the administration of compounds.

**Q.** For `C[C@]12CC[C@@H]3c4ccc(O)cc4CC[C@H]3[C@@H]1CC[C@H]2O` [17α-estradiol], which “stimulation of NO release” value [1] is on record?
**A.** did not stimulate

**Q.** Which results are given for `C[C@]12CC[C@@H]3c4ccc(O)cc4CC[C@H]3[C@@H]1CC[C@@H]2O` [17β-estradiol]?
**A.** NO release at 10 pM [1]: failed to stimulate a significant increase; NO release in Ca-leached endothelial cells [1]: 1.8 ± 0.6 nM; NO release peak value [1]: 16.1 nM; concentration of maximal effect on NO release [1]: 1 nM; peak value of NO release (non-leached comparison) [1]: 16.0 ± 2.7 nM; response of ITA with endothelial lining scraped off [1]: non-responsive; time period of NO release [1]: 10 min; time to peak of NO release [1]: ≤ 2 min; [Ca^2+]i after leaching of intracellular calcium stores ([2]; 17β-estradiol 1 nM, 3 hour Ca-free incubation, medium changed six times): 3.8±0.6; EC50 ([2]; stated with the [Ca^2+]i results): 0.5 nM

**Q.** For `CC(C)C[C@@H](NC(=O)[C@H](Cc1ccccc1)NC(=O)CNC(=O)[C@@H](C)NC(=O)[C@@H](N)Cc1ccc(O)cc1)C(=O)O` [DADLE, (D-Ala^2, Leu^5)-enkephalin], which “stimulation of intracellular calcium level increases in endothelial cells” value (mu3 opiate receptor [3]) is on record?
**A.** did not stimulate

**Q.** For `CSCC[C@H](NC(=O)[C@H](Cc1ccccc1)NC(=O)CNC(=O)[C@@H](C)NC(=O)[C@@H](N)Cc1ccc(O)cc1)C(N)=O` [DAMA, (D-Ala^2, Met^5)-enkephalinamide], which IC50 (mu3 opiate receptor [4]; GRANULOCYTES membranes, 40 nM [3H]-DHM, mean ± SEM, three experiments, read-out: Displacement of [3H]-DHM IC50) is on record?
**A.** > 1000 nM

**Q.** And the IC50 (mu3 opiate receptor [4]; LUNG CARCINOMA (non-small cell) membranes, 40 nM [3H]-DHM, mean ± SEM, read-out: Displacement of [3H]-DHM IC50)?
**A.** > 1000 nM

**Q.** What about the IC50 (mu3 opiate receptor [4]; NORMAL LUNG membranes, 40 nM [3H]-DHM, mean ± SEM, read-out: Displacement of [3H]-DHM IC50) of the same compound?
**A.** > 1000 nM

**Q.** And the “NO release at 4 minutes post morphine exposure” value (mu3 opiate receptor [5])?
**A.** 5.2 ± 1.4 nM

**Q.** What about the “effect of pre-treatment on morphine-induced NO release” value (mu3 opiate receptor [5]; 1 nM peptide, vascular tissue, human monocytes, human granulocytes) of the same compound?
**A.** prevented

**Q.** What about the “inhibition of morphine-induced NO release” value (mu3 opiate receptor [5]; 1 nM peptide, vascular tissue, 4 to 10 minute time points) of the same compound?
**A.** significantly (P<0.05) inhibited

**Q.** And the “NO release at 4 minutes” value (mu3 opiate receptor [5]; vascular tissue, DAMA alone 1 nM)?
**A.** 0.0 nM

**Q.** And the “stimulation of intracellular calcium level increases in endothelial cells” value (mu3 opiate receptor [3]; concentration range 1 pM to 1 μM)?
**A.** did not stimulate

**Q.** Which results are given for `C[C@@H](NC(=O)[C@@H](N)Cc1ccc(O)cc1)C(=O)NCC(=O)N(C)[C@@H](Cc1ccccc1)C(=O)NCCO` [DAMGO, (Tyr-D-Ala^2, Gly-N-Me-Phe^4, Gly(ol)^5)-enkephalin]?
**A.** effect of pre-treatment on morphine-induced NO release (mu3 opiate receptor [5]): prevented; effect on NO release (compound alone) (mu3 opiate receptor [5]): no effect; inhibition of morphine-induced NO release (mu3 opiate receptor [5]): significantly (P<0.05) inhibited; stimulation of endothelial [Ca^2+]i increases (mu3 opiate receptor [3]): did not stimulate

**Q.** With `CN1CC[C@]23c4c5ccc(O)c4O[C@H]2[C@@H](O)CC[C@H]3[C@H]1C5` [Dihydromorphine] as the compound, how does the IC50 (mu3 opiate receptor [4]; Displacement of [3H]-DHM IC50) read?
**A.** 33 nM and 27 nM and 28.5 nM

**Q.** How did the “effect of pre-treatment on 17β-estradiol-induced NO release” value ([1]; ITA fragments and cultured arterial endothelial cells, tamoxifen 1 nM, ICI 182,780 1 nM, L-NAME 100 μM, 5 minutes before agonist) turn out when `C[C@]12CC[C@@H]3c4ccc(O)cc4C[C@@H](CCCCCCCCC[S+]([O-])CCCC(F)(F)C(F)(F)F)[C@H]3[C@@H]1CC[C@@H]2O` (stereo partly shown) [ICI 182, 780] was run?
**A.** failed to inhibit

**Q.** And the “effect of pre-treatment on E2-BSA-induced NO release” value ([1]; ITA fragments and cultured arterial endothelial cells, tamoxifen, ICI 182,780 1 nM, L-NAME 100 μM, 5 minutes before agonist)?
**A.** failed to inhibit

**Q.** And the “effect of prior exposure on 17β-estradiol-induced [Ca^2+]i increase” value [2]?
**A.** not

**Q.** With `COC(=O)[C@@H](N)CCCNC(=N)N[N+](=O)[O-]` [L-NAME, N omega-nitro-L-arginine methyl ester] as the compound, how does the “effect of pretreatment on morphine-induced NO release” value (mu3 opiate receptor [5]; human granulocytes) read?
**A.** inhibited

**Q.** `Oc1ccc2c3c1O[C@H]1c4[nH]c5ccccc5c4C[C@@]4(O)[C@@H](C2)N(CC2CC2)CC[C@]314` [Naltrindole] was tested. Which NO release (mu3 opiate receptor [5]) did it give?
**A.** 12.0 ± 3.4 nM

**Q.** What about the “effect on the inhibition of morphine-induced NO release by DAMA” value (mu3 opiate receptor [5]) of the same compound?
**A.** blocked

**Q.** `CC/C(=C(\c1ccccc1)c1ccc(OCCN(C)C)cc1)c1ccccc1` [Tamoxifen] was tested. Which “effect of pre-treatment on 17β-estradiol-induced NO release” value [1] did it give?
**A.** significantly diminished

**Q.** And the “effect of pre-treatment on E2-BSA-induced NO release” value [1]?
**A.** blocked

**Q.** And the “effect of prior exposure on 17β-estradiol-induced [Ca^2+]i increase” value [2]?
**A.** blocked
